From ChEMBL document CHEMBL3822366, “Design, synthesis and anticancer activity of novel hybrid compounds between benzofuran and N-aryl piperazine” (Bioorg Med Chem Lett, 2016) come the findings set out here.

One data set concerns A549. The data set can be described thus: Cytotoxicity against human A549 cells after 48 hrs by MTT assay. It counts as functional, cell-based. Particulars: A549, 48 h. On the technique in general: Tetrazolium dyes change colour on reduction, which living cells bring about.
For the next data set, the system named is MCF7. The data set can be described thus: Cytotoxicity against human MCF7 cells after 48 hrs by MTT assay. It counts as functional, cell-based. Conditions: MCF7, 48 h.
The nature of data set [1]: Cytotoxicity against human SGC7901 cells after 48 hrs by MTT assay. The format is functional, cell-based. Particulars: SGC-7901, 48 h.
Data set [2] in a line: Cytotoxicity against human L02 cells at <40 uM after 48 hrs by MTT assay. Particulars: l02, 48 h. The format is cell-based.
The next data set concerns HeLa. The data set can be described thus: Cytotoxicity against human HeLa cells after 48 hrs by MTT assay. The format is functional, cell-based.

The IC50 is the concentration at which inhibition is half-maximal. For the molecule `CCN(CC)c1ccc2cc(C(=O)c3ccc(N4CCN(C(=O)COc5ccc(Cl)cc5Cl)CC4)cc3)oc2c1`, the IC50 in the data set with A549 turned out to be 5.73 µM; in the data set on MCF7, 12.4 µM; in data set [1], 6.17 µM; in the data set on HeLa, 0.03 µM. In addition, the Activity result in data set [2] was “Non-toxic”.

`CCN(CC)c1ccc2cc(C(=O)c3ccc(N4CCN(S(=O)(=O)c5ccc(F)cc5)CC4)cc3)oc2c1`: the half-inhibitory concentration (IC50) is 16.4 µM in the data set on A549, 21.7 µM in the data set on MCF7, over 40 µM in data set [1] and 21.6 µM in the data set with HeLa.

With `CCN(CC)c1ccc2cc(C(=O)c3ccc(N4CCN(C(C)=O)CC4)cc3)oc2c1`, the IC50 with A549 was 30.1 µM; in the data set on MCF7, 16.2 µM; in data set [1] it was 25.6 µM; with HeLa it was 5.15 µM.

Regarding `CCN(CC)c1ccc2cc(C(=O)c3ccc(N4CCN(S(=O)(=O)c5ccc(C(F)(F)F)cc5)CC4)cc3)oc2c1`, the IC50 in the data set with A549 is 11.1 µM; in the data set with MCF7 it was over 40 µM; in data set [1] it was 0.17 µM; in the data set with HeLa it was 9.72 µM.

Take `CCN(CC)c1ccc2cc(C(=O)c3ccc(N4CCN(C(=O)c5ccc(Br)cc5F)CC4)cc3)oc2c1`: the IC50 in the data set on A549 was 20.4 µM; in the data set with MCF7 it was over 40 µM; in data set [1], 13.5 µM; in the data set with HeLa, 0.53 µM.

As to `CCN(CC)c1ccc2cc(C(=O)c3ccc(N4CCN(C(=O)c5ccccc5)CC4)cc3)oc2c1`, the IC50 in the data set on A549 is over 40 µM; in the data set on MCF7, over 40 µM; in data set [1], over 40 µM; in the data set on HeLa it was 15.2 µM.

For the molecule `CCN(CC)c1ccc2cc(C(=O)c3ccc(N4CCN(S(=O)(=O)c5ccc([N+](=O)[O-])cc5)CC4)cc3)oc2c1`, the IC50 in the data set on A549 was 24.4 µM; in the data set on MCF7, over 40 µM; in data set [1], 1.86 µM; with HeLa it was over 40 µM.

Turning to `CCOC(=O)N1CCN(c2ccc(C(=O)c3cc4ccc(N(CC)CC)cc4o3)cc2)CC1`, the IC50 with A549 was over 40 µM; in the data set with MCF7 it was over 40 µM; in data set [1], over 40 µM; in the data set on HeLa, 20.3 µM.

On to `CCN(CC)c1ccc2cc(C(=O)c3ccc(N4CCN(C(=O)c5ccccc5Cl)CC4)cc3)oc2c1`, for which the IC50 is 6.11 µM in the data set with A549, 26.3 µM with MCF7, 12 µM in data set [1] and 0.34 µM in the data set on HeLa.

Consider `CCN(CC)c1ccc2cc(C(=O)c3ccc(N4CCN(S(=O)(=O)c5ccc(C)cc5)CC4)cc3)oc2c1`, for which the IC50 with A549 is over 40 µM; in the data set on MCF7, over 40 µM; in data set [1], over 40 µM; with HeLa it was 37.8 µM.

In the case of `CCN(CC)c1ccc2cc(C(=O)c3ccc(N4CCN(S(=O)(=O)c5ccc(Br)cc5)CC4)cc3)oc2c1`, the 50% inhibitory concentration (IC50) is 34.3 µM in the data set on A549, 26.1 µM in the data set with MCF7, over 40 µM in data set [1] and over 40 µM in the data set on HeLa.

For `CCN(CC)c1ccc2cc(C(=O)c3ccc(N4CCN(C(=O)c5ccc([N+](=O)[O-])c([N+](=O)[O-])c5)CC4)cc3)oc2c1`, the IC50 in the data set on A549 is over 40 µM; in the data set on MCF7, 19.6 µM; in data set [1], over 40 µM; with HeLa it was 25.2 µM.

Take `CCN(CC)c1ccc2cc(C(=O)c3ccc(N4CCN(C(=O)c5cccc(C(F)(F)F)c5)CC4)cc3)oc2c1`: the IC50 in the data set on A549 was determined as 9.27 µM; with MCF7, 34.1 µM; in data set [1] it was 11.3 µM; with HeLa, 0.4 µM.

Take `CCN(CC)c1ccc2cc(C(=O)c3ccc(N4CCN(S(=O)(=O)c5ccc(Br)c(F)c5)CC4)cc3)oc2c1`: the IC50 with A549 was 15.1 µM; in the data set on MCF7, 2.27 µM; in data set [1], over 40 µM; with HeLa, 20.7 µM.

On to `CCN(CC)c1ccc2cc(C(=O)c3ccc(N4CCN(S(C)(=O)=O)CC4)cc3)oc2c1`, for which the IC50 (in the data set on A549; in the data set with MCF7; in data set [1]; in the data set with HeLa) was over 40 µM throughout.

As for `CCN(CC)c1ccc2cc(C(=O)c3ccc(N4CCN(C(=O)c5ccc(Cl)c(Cl)c5)CC4)cc3)oc2c1`, the IC50 with A549 amounted to 0.22 µM; in the data set with MCF7, 8.08 µM; in data set [1], 5.84 µM; in the data set on HeLa, 15.2 µM.
